Assay results: patent publication US9365532B1, “Synthesis, composition and use of novel therapeutic and cosmetic Schiff base products formed by reaction of a carbonyl containing moeity with a transimination nucleophilic catalyst and the use of transimination nucleophilic catalysts to increase the rate at which carbonyl containing therapeutic and …” (Nanometics, LLC., priority 2011, dated 2016)
“Also recorded” adds a separate entry of the source.

Legend:
human skin = assay: Melanoidin formation in vivo on human skin; conditions: low concentrations of transimination nucleophilic catalyst
Procedure: The application areas were allowed to dry for 5 min and were monitored for 14 days, with photographs taken throughout. The subjects were asked not to bathe for the first 24 h. […] Significant differences in the appearance of the application areas were noticeable during the study, and no adverse reactions of any kind were observed. […] The preliminary results of these experiments are promising, and we plan to expand the study to incorporate a larger, statistically significant panel during phase II SBIR studies.

HbS [1] = molecular target: T1, HbS (Homo sapiens, UniProt P69905); assay: Ex vivo 5HMF/HbS adduct formation in whole blood, AIC vs 5HMF; assay type: cell-based, BERKγM mouse; conditions: for 5HMF/HbS adduct formed: 30 min at 37° C.
T1 construct: To aliquots of whole blood (100 μL), from the BERKγM mouse; from tissue; host or cells: red cells in whole blood of BERKγM / BERK M transgenic sickle mice (ex vivo incubation, or in vivo after i.v. injection)
Target sequence in this assay (P69905 2-142 limits assumed): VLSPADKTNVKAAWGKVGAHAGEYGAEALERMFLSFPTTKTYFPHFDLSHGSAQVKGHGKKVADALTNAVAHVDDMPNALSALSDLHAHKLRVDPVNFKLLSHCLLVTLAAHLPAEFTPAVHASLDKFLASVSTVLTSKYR

HbA = molecular target: T2, HbA (Homo sapiens, UniProt P69905); assay: 5HMF/HbA Schiff base adduct formation with purified HbA, cation-exchange HPLC; assay type: binding; conditions: for percent Hb adduct (5HMF/HbA): 30 min at room temperature, HbA 1 mg/ml PBS 7.4
T2 construct: purified HbA (1 mg/ml), from an anonymous human donor; from tissue; host or cells: blood of an anonymous human donor (purified HbA)
Procedure: The isolated imine of Example 1, formed by reacting p-aminobenzoic acid and 5-hydroxymethyl furfural, reacts with hemoglobin at faster rates than 5HMF. The therapeutic imine was synthesized according to Example 1. To a solution of purified HbA (1 mg/ml), from an anonymous human donor, in PBS 7.4 was added equivalent amounts of the therapeutic imine of AIC (1 mM), or 5HMF (1 mM). The HbA solutions show a new peak (˜7.1 min) on cation-exchange HPLC (Table 2) that elutes prior to the unmodified HbA peak (˜8.2 min). The new peak represents the […] formed between 5HMF and HbA and can be quantified by integration of the representative peaks. […] The initial rate of Schiff base adduct formation between the therapeutic imine and HbA is nearly 10 times faster than the rate of formation between 5HMF and HbA, as determined by cation-exchange HPLC at room temperature.

[2] = Stability to air, light and moisture (controlled humidity chamber); assay type: physicochemical; conditions: 500 mg, light, 22° C., 2 wks
Procedure: The commercial-scale production, distribution and stability of 5HMF, a hygroscopic off-white solid, may be costly as the compound is highly susceptible to degradation upon exposure to air, light and moisture (21). […] To quantify the differences in stability, 500 mg of AIC or 5HMF were placed in a controlled humidity chamber and exposed to light at 22° C. for a period of 2 wks.

HbS [3] = molecular target: T1, HbS; assay: Ex vivo 5HMF/HbS adduct formation in whole blood, PABA/5HMF mixtures; assay type: cell-based, BERKγM transgenic mouse; conditions: for 5HMF/HbS adduct formed: whole blood
Procedure: Studies were initiated to explore the impact of mixing equimolar concentrations of PABA and 5HMF on the rate of 5HMF/HbS adduct formation in whole blood from a BERKγM transgenic mouse. To aliquots of whole blood (100 μL) was added either 5HMF (2 mM or 5 mM), the sodium salt of PABA (2 mM or 5 mM), or equimolar concentrations of PABA/5HMF (2 mM or 5 mM). […] The rate enhancements are not optimized in these experiments, and additional experiments to account for the differences in rates of transport across the RBC membrane will be performed during Phase II SBIR studies.
Target sequence in this assay (P69905 2-142): as the sequence (P69905 2-142 limits assumed) above

hemoglobin = hemoglobin (Homo sapiens, UniProt P69905); assay: Oxygen equilibrium curves of hemoglobin solutions (Hemox Analyzer); assay type: biochemical; conditions: for n50 (hill coefficient) / ΔP50 (%) / P50: no PABA
Procedure: The oxygen equilibrium curves (OEC) of hemoglobin (1 mg/ml) in phosphate buffer saline pH 7.4 containing 100 mM, 10 mM or 1 mM of the sodium salt of p-aminobenzoate (Sigma) were determined with a Hemox Analyzer (TCS Scientific Corp.). Hemoglobin solutions were incubated at 37° C. for 1 h, in the presence (+) or absence (−) of each compound, as specified in Table 1.

T-cell surface amines = assay: Competitive covalent ligation assay, Tucaresol/T-cell adduct formation (flow cytometry); assay type: cell-based, Balb/c male mice; conditions: 500 μM Tucaresol and/or 1 mM PABA, 30 min, 37° C.
Excerpt: The central hypothesis of our approach involves utilizing PABA to increase the rate of Schiff base formation between Tucaresol and T-cells in order to minimize the concentration of Tucaresol required for efficacy. We used an established competitive covalent ligation assay (2) to examine the influence of PABA on the rate and degree of Schiff base-adduct formation between Tucaresol and T-cells isolated from the spleens of Balb/c male mice. In this assay, the degree of Tucaresol/T-cell adduct formation is inversely proportional to the mean fluorescence intensity (as visualized by ligation with S-NHS-biotin and FITC-avidin). T-cells were incubated for 30 min with 500 μM Tucaresol only (blue column, FIG. 5), 1 mM PABA only (orange column, FIG. 5) or a mixture of 500 μM Tucaresol and 1 mM PABA (red column, FIG. 5) at 37° C. After 30 min, the reducing agent NaCNBH3 was added to selectively reduce Schiff base adducts (chemically trapping the Tucaresol/T-cell adduct). Washed cells were exposed for 1 h to 12.5 μM S-NHS-biotin (Pierce Rockford, Ill.) to ligate unreacted free surface amino groups. After washing, cells were exposed to excess fluorescent avidin (FITC-avidin) (Pierce), fixed and visualized using flow cytometry.

[4] = Melanoidin formation in vitro in glycine/DHA solutions; conditions: glycine (6%) and DHA (6%), 32° C.
Procedure: Solutions of glycine (6%) and DHA (6%) in 100 mM NH4OAc buffer pH 5.5 were incubated in the presence (+) and absence (−) of the sodium salt of PABA (1%) at 32° C.

[5] = humans; cited from earlier work
HIV-positive patients = conditions: cited from earlier work
[6] = Behaviour and toxicity after intravenous injection
HbS [7] = molecular target: T1, HbS; assay: In vivo 5HMF/HbS adduct formation after intravenous injection; set-up: species or system BERK M mice; conditions: 200 mg/kg each
Procedure: BERK M mice were injected (intravenous) with solutions containing either 5HMF (200 mg/kg) or 5HMF (200 mg/kg) and the sodium salt of PABA (200 mg/kg). […] To assess of 5HMF/HbS adduct formation, aliquots of blood were taken at 10 and 30 min, and immediately washed, lysed and subjected to HPLC as previously described.
Target sequence in this assay (P69905 2-142): as the sequence (P69905 2-142 limits assumed) above

sickle cells = conditions: in vitro, high concentrations of 5HMF; cited from earlier work
[8] = mouse, in vivo; cited from earlier work

T2 sequence (P69905 2-142 limits assumed): as above
T2 sequence (P68871 2-147 partner limits assumed): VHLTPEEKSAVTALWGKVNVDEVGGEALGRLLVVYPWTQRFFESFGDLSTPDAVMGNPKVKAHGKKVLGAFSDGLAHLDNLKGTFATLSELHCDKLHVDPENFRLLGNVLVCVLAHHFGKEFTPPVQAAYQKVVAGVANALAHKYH
hemoglobin, sequence (P69905 2-142 limits assumed): as the sequence (P69905 2-142 limits assumed) above
hemoglobin, sequence (P68871 2-147 partner limits assumed): as the sequence (P68871 2-147 partner limits assumed) above

SMILES: Nc1ccccc1C(=O)O [OABA, o-aminobenzoic acid]
- rate at which melanoidin formation occurs on human skin (human skin): significantly increase the rate

SMILES: CC1CCC(C(C)C)C(OC(=O)c2ccccc2N)C1 (stereo not drawn) [Menthyl-o-aminobenzoate]
- rate at which melanoidin formation occurs on human skin (human skin): significantly increase the rate

SMILES: O=C(O)c1ccc(/N=C/c2ccc(CO)o2)cc1 [AIC, 4-((5-(hydroxymethyl)furan-2-yl)methyleneamino)benzoic acid]
- 5HMF/HbS adduct formed (HbS [1]; 5 mM, whole blood): 50%
- rate of 5HMF/HbS adduct formation vs 5HMF (in words) (HbS [1]; 5 mM, whole blood, initial rate measured after 10 min): significantly faster; also recorded: significantly enhanced rates
- erythrocyte membrane permeation (HbS [1]; whole blood, 5 mM): permeates the erythrocyte membrane
- rate of 5HMF/HbA adduct formation vs 5HMF (in words) (HbA; 1 mM AIC or 1 mM 5HMF): significantly enhanced rates
- percent Hb adduct (5HMF/HbA) (HbA; 1 mM): ~32%
- initial rate of Schiff base adduct formation with HbA relative to 5HMF (HbA; 1 mM, room temperature): ~10 times
- chemical change by 1HNMR spectra and HPLC chromatogram on storage [2]: no changes
- color change on storage [2]: did not exhibit a noticeable color change

SMILES: Nc1ccc(C(=O)O)cc1 [PABA, p-aminobenzoic acid]
- new adduct peak by HPLC (HbS [1]; PABA only negative control): did not show a new peak
- amount of 5HMF/HbS adduct formed in the presence of equimolar PABA (in words) (HbS [3]; 2 mM or 5 mM 5HMF with equimolar PABA, FIG. 2): significantly increased
- adduct formation (HbS [3]; PABA only control (2 mM or 5 mM)): did not result in any adduct formation
- shift of OEC / change in P50 value vs Hb control (hemoglobin; 100 mM, 10 mM or 1 mM PABA, no 5HMF): did not shift the OEC or cause a change in the P50 value
- rate at which melanoidin formation occurs on human skin (human skin): significantly increase the rate
- mean fluorescence intensity of T-cells (inversely proportional to Tucaresol/T-cell adduct formation) (T-cell surface amines): did not exhibit a change in mean fluorescent intensity
- rate of darkening of solutions ([4]; 100 mM NH4OAc pH 5.5, 1% PABA sodium salt, vs no PABA): darkened at faster rates
- change of UV-Vis spectrum ([4]; 1% PABA): changed more rapidly
- new adduct peak by HPLC (HbA; PABA only control): did not show a new peak
- daily doses with no reported side effects [5]: below 12 grams

SMILES: CCOC(=O)c1ccccc1N [ethyl anthranilate]
- rate at which melanoidin formation occurs on human skin (human skin): significantly increase the rate

SMILES: O=Cc1c(O)cccc1OCc1ccc(C(=O)O)cc1 [Tucaresol, 4(2-formyl-3-hydroxy-phenoxymethyl) benzoic acid]
- CD4+ counts (HIV-positive patients; HIV-positive patients): increase in CD4+ counts
- HIV viraemia (HIV-positive patients; HIV-positive patients): unaffected
- Tucaresol-related serious adverse events (patients) (HIV-positive patients; after the first dose): 2/21

SMILES: CCC=CCCOC(=O)c1ccccc1N [3-hexen-1-yl anthranilate]
- rate at which melanoidin formation occurs on human skin (human skin): significantly increase the rate

SMILES: O=Cc1ccc(CO)o1 [Example 5HMF, 5-hydroxymethyl-2-furfural]
- behavior of mice after injection ([6]; 200 mg/kg, intravenous): became lethargic and exhibited noticeable changes in behavior
- convulsion and death ([6]; higher concentrations of 5HMF (300-500 mg/kg)): caused mice to convulse and die
- 5HMF/HbS adduct formed (HbS [1]; 5 mM, whole blood): 27%
- 5HMF/HbS adduct formed (HbS [3]; 2 mM (equimolar for mixture), 37° C.): 23%
- 5HMF/HbS adduct formed (HbS [3]; 5 mM (equimolar for mixture), 30 minutes at 37° C.): 40%
- 5HMF/HbS adduct (HbS [7]; blood taken at 10 min): 5.1%
- 5HMF/HbS adduct (HbS [7]; blood taken at 30 min): 4.1%
- n50 (hill coefficient) (hemoglobin; Exp A: 1 mM 5HMF, 1 h 37° C.): 2.50
- ΔP50 (%) (hemoglobin; Exp A: 1 mM 5HMF, 1 h 37° C., vs control P50): 7.53%
- P50 (hemoglobin; Exp A: 1 mM 5HMF, Hb 1 mg/ml PBS pH 7.4, 1 h 37° C.): 14.00 mmHg
- P50 (hemoglobin; Exp E: 3 mM 5HMF, 1 h 37° C.): 8.21 mmHg
- n50 (hill coefficient) (hemoglobin; Exp E: 3 mM 5HMF, 1 h 37° C.): 1.73
- ΔP50 (%) (hemoglobin; Exp E: 3 mM 5HMF, 1 h 37° C.): 45.78%
- P50 (hemoglobin; Exp F: 5 mM 5HMF, 1 h 37° C.): 5.72 mmHg
- n50 (hill coefficient) (hemoglobin; Exp F: 5 mM 5HMF, 1 h 37° C.): 1.91
- ΔP50 (%) (hemoglobin; Exp F: 5 mM 5HMF, 1 h 37° C.): 62.22%
- hypoxia-induced formation of sickle cells (sickle cells): largely inhibited
- percent Hb adduct (5HMF/HbA) (HbA; 1 mM): 6%
- chemical change by 1HNMR spectra and HPLC chromatogram on storage [2]: After 3 days, the 5HMF sample has undergone significant chemical changes
- color change on storage [2]: becomes yellow after 24 h
- survival time of mice exposed to severe hypoxia [8]: prolonged the survival time

SMILES: COC(=O)c1ccccc1N [methyl anthranilate]
- rate at which melanoidin formation occurs on human skin (human skin): significantly increase the rate

SMILES: CCCCOC(=O)c1ccccc1N [butyl anthranilate]
- rate at which melanoidin formation occurs on human skin (human skin): significantly increase the rate
